{"source": "patent US20090088345A1", "about": "“NECESSARY AND SUFFICIENT REAGENT SETS FOR CHEMOGENOMIC ANALYSIS” (priority 2004, published 2009)", "test_system": "PPARα signature", "assay": "Scalar product (signature score) of compound treatments against PPARα gene signatures from rat liver microarray expression profiles", "format": "in vivo", "conditions": "previous observation, original PPARα signature", "method": "“Scalar product” (or “Signature score”) as used herein refers to the sum of impacts for all genes in a signature less the bias for that signature.\nThe detailed description of the construction of this chemogenomic dataset is described in Examples 1 and 2 of Published U.S. Pat. Appl. No. 2005/0060102 A1, published Mar. 17, 2005, which is hereby incorporated by reference for all purposes. Briefly, in vivo short-term repeat dose rat studies were conducted on over 580 test compounds, including marketed and withdrawn drugs, environmental and industrial toxicants, and standard biochemical reagents. Rats (three per group) were dosed daily at either a low or high dose. The low dose was an efficacious dose estimated from the literature and the high dose was an empirically-determined maximum tolerated dose, defined as the dose that causes a 50% decrease in body weight gain relative to controls during the course of the 5 day range finding study. Animals were necropsied on days 0.25, 1, 3, and 5 or 7. […]\nLog10-ratios are computed for each gene as the difference of the averaged logs of the experimental signals from (usually) three drug-treated animals and the averaged logs of the control signals from (usually) 20 mock vehicle-treated animals. To assign a significance level to each gene expression change, the standard error for the measured change between the experiments and controls is computed. […]"}
{"smiles": "CC(C)(Oc1ccc(Cl)cc1)C(=O)O", "note": "[clofibric acid]", "values": [{"measurement": "scalar product against the PPARα signature", "result": "weakest of the known PPARα agonists"}]}
